What was measured:
[1] = tested on: pS6K1 T389 and pAkt S473 in PC3 cells; assay: Western blot based pS6K1 and pAKT assay at 24 and 48 hour timepoints; assay type: cell-based
Protocol: Example 57: Western Blot Based pS6K1 and pAKT Assay at 24 and 48 Hour Timepoints
Assay Protocol: • 1. Seed six well plate with 500,000 PC3 cells per well and incubate for 20˜24 hour. • 2. Add compounds into the cell plate. Incubate for 24 to 48 hours. • 4. Plate is placed on ice and the media is removed via aspiration. The wells are washed with 1 mL of 1x PBS and then fully aspirated. • 5. 110 μL of 1% Triton Lysis Buffer is added and each well is scraped vigorously. • 6. Cell homogenates are transferred to 1.5 mL eppendorf tubes on ice and spun down at 4° C. for 10 minutes at 10,000 rpm. • 7. Protein concentration of resulting cell lysates were quantified utilizing a Bradford assay and the samples run analyzed via Western blot on 4-12% Bis/Tris gels with 1×MES buffer. • 8. The gels were transferred onto membranes at 50V for 100 minutes, blocked with Odyssey Blocking buffer for 30 minutes then incubated overnight with primary antibody (pS6K1 T389 Rabbit or pAkt S473 Rabbit) overnight at 4° C. on a rotator. • 9. The membranes were washed 3× with TBS-T with a 5 minute incubation between each wash then incubated with secondary antibody (LiCor IRDye 800 Donkey Anti Rabbit) for at least 30 minutes. • 10. The membranes were washed 3× with TBS-T with a 5 minute incubation between each wash. • 11. The gels were then incubated for 5 minutes with PBS at room temperature then imaged using a Li-Cor.
Compounds that are not selective by comparing pS6K1 and pAKT IC50 by kinase assays are indicated by “NO” in the “mTORC1 selective @ 90 min” column of Table 4. […] Compounds that are not selective at the 24 hrs mark are indicated by “NO” in the “mTORC1 selective @ 24 hrs” column of Table 4. “N/A” stands for “not assayed” and “N/C” stands for “not calculated”.

[2] = tested on: p-p70 S6 Kinase (Thr389) in MCF-7 cells; assay: AlphaLISA Ultra pS6K1 assay; assay type: cell-based; conditions: Homo sapiens, 1.5 h; MCF7 cells, 90 min
In short: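 MCF-7 cells seeded 20–24 h, given fresh medium 2 h, then treated with compounds 90 min (0.5% DMSO final). Cells lysed, lysates frozen at −80 °C, then Thr389-phosphorylated S6K1 detected by AlphaLISA Ultra with acceptor beads 2 h, then donor beads 2 h.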

| IC50 [2] [nM] | SMILES | mTORC1 selective @ 24 hrs [1] |
| --- | --- | --- |
| < 1 | CO[C@@H]1C[C@H](C[C@@H](C)[C@@H]2CC(=O)[C@H](C)/C=C(\C)[C@@H](O)[C@@H](OC)C(=O)[C@H](C)C[C@H](C)/C=C/C=C/C=C(\C)[C@@H](OCCOC3COC3)C[C@@H]3CC[C@@H](C)[C@@](O)(O3)C(=O)C(=O)N3CCCC[C@H]3C(=O)O2)CC[C@H]1OCCCN1CCOCC1 [I-14, (27E,29E,31E,32E,39R,40S,41R,42R,44S,46S,48S,49S,51R,52R,61R)-51,61-dihydroxy-52-methoxy-49-[(1R)-2-[(1S,3R,4R)-3-methoxy-4-(3-morpholinopropoxy)cyclohexyl]-1-methyl-ethyl]-39,40,41,42,53,54-hexamethyl-48-[2-(oxetan-3-yloxy)ethoxy]-73,74-dioxa-63-azatricyclohexatriaconta-27,29,31(53),32(54)-tetraene-55,56,57,58,59-pentone] | Yes |
| < 1 | CO[C@@H]1C[C@H](C[C@@H](C)[C@@H]2CC(=O)[C@H](C)/C=C(\C)[C@@H](O)[C@@H](OC)C(=O)[C@H](C)C[C@H](C)/C=C/C=C/C=C(\C)[C@@H](OCCOC3COC3)C[C@@H]3CC[C@@H](C)[C@@](O)(O3)C(=O)C(=O)N3CCCC[C@H]3C(=O)O2)CC[C@H]1OC(=O)NCCN1CCOCC1 [I-21, [(42S,44R,46R)-4-[(2R)-2-[(27E,29E,31E,32E,38R,39S,40R,41R,43S,45S,47S,48S,50R,51R,61R)-50,61-dihydroxy-51-methoxy-38,39,40,41,52,53-hexamethyl-47-[2-(oxetan-3-yloxy)ethoxy]-54,55,56,57,58-pentaoxo-75,76-dioxa-64-azatricyclohexatriaconta-27,29,31(52),32(53)-tetraen-48-yl]propyl]-46-methoxy-44-cyclohexyl] N-(2-morpholinoethyl)carbamate] | Yes |
| 10 to 100 | CO[C@@H]1/C(C)=C/[C@@H](C)C(=O)C[C@@H]([C@H](C)C[C@@H]2CC[C@@H](O)[C@H](OC)C2)OC(=O)[C@@H]2CCCCN2C(=O)C(=O)[C@]2(O)O[C@@H](CC[C@H]2C)C[C@H](OCC2COCCO2)/C(C)=C/C=C/C=C/[C@@H](C)C[C@@H](C)C(=O)[C@@H]1OC (stereo partly drawn) [I-27, (25E,27E,29E,30E,33R,34S,35R,36R,38S,40S,42S,43S,45R,46R,55R)-42-(1,4-dioxan-2-ylmethoxy)-55-hydroxy-43-[(1R)-2-[(1S,3R,4R)-4-hydroxy-3-methoxy-cyclohexyl]-1-methyl-ethyl]-45,46-dimethoxy-33,34,35,36,47,48-hexamethyl-66,67-dioxa-56-azatricyclohexatriaconta-25,27,29(47),30(48)-tetraene-49,50,51,52,53-pentone] | Yes |
| 10 to 100 | COCCOCCO[C@H]1C[C@@H]2CC[C@@H](C)[C@@](O)(O2)C(=O)C(=O)N2CCCC[C@H]2C(=O)O[C@H]([C@H](C)C[C@@H]2CC[C@@H](OC)[C@H](OC)C2)CC(=O)[C@H](C)/C=C(\C)[C@@H](OC)[C@@H](OC)C(=O)[C@H](C)C[C@H](C)/C=C/C=C/C=C/1C [I-31, (24E,26E,28E,29E,35R,36S,37R,38R,40S,42S,44S,45S,46R,47R,56R)-45-[(1R)-2-[(1S,3R,4R)-3,4-dimethoxycyclohexyl]-1-methyl-ethyl]-56-hydroxy-46,47-dimethoxy-44-[2-(2-methoxyethoxy)ethoxy]-35,36,37,38,48,49-hexamethyl-64,65-dioxa-57-azatricyclohexatriaconta-24,26,28(48),29(49)-tetraene-50,51,52,53,54-pentone] | Yes |
| 1 to 10 | COCCOCCO[C@H]1C[C@@H]2CC[C@@H](C)[C@@](O)(O2)C(=O)C(=O)N2CCCC[C@H]2C(=O)O[C@H]([C@H](C)C[C@@H]2CC[C@@H](OP(C)(C)=O)[C@H](OC)C2)CC(=O)[C@H](C)/C=C(\C)[C@@H](OC)[C@@H](OC)C(=O)[C@H](C)C[C@H](C)/C=C/C=C/C=C/1C [I-34, (25E,27E,29E,30E,36R,37S,38R,39R,41S,43S,45S,46S,47R,48R,57R)-46-[(1R)-2-[(1S,3R,4R)-4-dimethylphosphoryloxy-3-methoxy-cyclohexyl]-1-methyl-ethyl]-57-hydroxy-47,48-dimethoxy-45-[2-(2-methoxyethoxy)ethoxy]-36,37,38,39,49,50-hexamethyl-66,67-dioxa-58-azatricyclohexatriaconta-25,27,29(49),30(50)-tetraene-51,52,53,54,55-pentone] | Yes |
| 1 to 10 | COCCOCCO[C@H]1C[C@@H]2CC[C@@H](C)[C@@](O)(O2)C(=O)C(=O)N2CCCC[C@H]2C(=O)O[C@H]([C@H](C)C[C@@H]2CC[C@@H](OCCO)[C@H](OC)C2)CC(=O)[C@H](C)/C=C(\C)[C@@H](OC)[C@@H](OC)C(=O)[C@H](C)C[C@H](C)/C=C/C=C/C=C/1C [I-37, (23E,25E,27E,28E,36R,37S,38R,39R,41S,43S,45S,46S,47R,48R,57R)-57-hydroxy-46-[(1R)-2-[(1S,3R,4R)-4-(2-hydroxyethoxy)-3-methoxy-cyclohexyl]-1-methyl-ethyl]-47,48-dimethoxy-45-[2-(2-methoxyethoxy)ethoxy]-36,37,38,39,49,50-hexamethyl-66,67-dioxa-58-azatricyclohexatriaconta-23,25,27(49),28(50)-tetraene-51,52,53,54,55-pentone] | Yes |
| ≥ 1000 | CO[C@@H]1/C(C)=C/[C@@H](C)C(=O)C[C@@H]([C@H](C)C[C@@H]2CC[C@@H](OC)[C@H](OC)C2)OC(=O)[C@@H]2CCCCN2C(=O)C(=O)[C@]2(O)O[C@@H](CC[C@H]2C)C[C@H](OCC2COCCO2)/C(C)=C/C=C/C=C/[C@@H](C)C[C@@H](C)C(=O)[C@@H]1OC (stereo partly drawn) [I-40, (26E,28E,30E,31E,34R,35S,36R,37R,39S,41S,43S,44S,46R,47R,56R)-44-[(1R)-2-[(1S,3R,4R)-3,4-dimethoxycyclohexyl]-1-methyl-ethyl]-43-(1,4-dioxan-2-ylmethoxy)-56-hydroxy-46,47-dimethoxy-34,35,36,37,48,49-hexamethyl-66,67-dioxa-57-azatricyclohexatriaconta-26,28,30(48),31(49)-tetraene-50,51,52,53,54-pentone] | Yes |
| 10 to 100 | COCCS(=O)(=O)CCO[C@H]1C[C@@H]2CC[C@@H](C)[C@@](O)(O2)C(=O)C(=O)N2CCCC[C@H]2C(=O)O[C@H]([C@H](C)C[C@@H]2CC[C@@H](OC)[C@H](OC)C2)CC(=O)[C@H](C)/C=C(\C)[C@@H](OC)[C@@H](OC)C(=O)[C@H](C)C[C@H](C)/C=C/C=C/C=C/1C [I-43, (24E,26E,28E,29E,35R,36S,37R,38R,40S,42S,44S,45S,46R,47R,56R)-45-[(1R)-2-[(1S,3R,4R)-3,4-dimethoxycyclohexyl]-1-methyl-ethyl]-56-hydroxy-46,47-dimethoxy-44-[2-(2-methoxyethylsulfonyl)ethoxy]-35,36,37,38,48,49-hexamethyl-66,67-dioxa-57-azatricyclohexatriaconta-24,26,28(48),29(49)-tetraene-50,51,52,53,54-pentone] | Yes |

— patent publication US20220267352A1, “RAPAMYCIN ANALOGS AND USES THEREOF” (Anakuria Therapeutics, Inc., priority 2021, published 2022)
